Measurements from US4051237A, “Glycopeptide antibiotics Bu-2231 A and B and process for producing same” (priority 1975, dated 1977).
Converted amounts (≈) assume the structure as drawn.

What was measured:
S. cerevisiae ATCC 9763 = test: MIC by two-fold agar dilution; assay type: cell-based; conditions: Sc-1 S. cerevisiae ATCC 9763; sabouraud agar; unit assumed
Verticillium sp. = test: MIC by two-fold agar dilution; assay type: cell-based; conditions: Vx-1 Verticillium sp.; sabouraud agar; unit assumed
P. aeruginosa A 9923 = test: MIC by two-fold agar dilution; assay type: cell-based; conditions: Mueller-Hinton agar, unit assumed
Mycobacterium 607, D47 = test: MIC by two-fold agar dilution; assay type: cell-based; conditions: Medium #1001, unit assumed
P morganii A9553 = test: MIC by two-fold agar dilution; assay type: cell-based; conditions: Mueller-Hinton agar, unit assumed
S. marcescens A20460 = test: MIC by two-fold agar dilution; assay type: cell-based; conditions: Mueller-Hinton agar, unit assumed
E. cloacae A21006 = test: MIC by two-fold agar dilution; assay type: cell-based; conditions: Mueller-Hinton agar, unit assumed
P. vulgaris A9436 = test: MIC by two-fold agar dilution; assay type: cell-based; conditions: Mueller-Hinton agar, unit assumed
E. coli A20665 = test: MIC by two-fold agar dilution; assay type: cell-based; conditions: Mueller-Hinton agar, unit assumed
P. stuartii A20734 = test: MIC by two-fold agar dilution; assay type: cell-based; conditions: Mueller-Hinton agar, unit assumed
E. coli A20732 = test: MIC by two-fold agar dilution; assay type: cell-based; conditions: Mueller-Hinton agar, unit assumed
B. anthracis 115 = assay type: cell-based; conditions: Mueller-Hinton agar, unit assumed
A. fumigatus IAM 2530 = test: MIC by two-fold agar dilution; assay type: cell-based; conditions: Af-1 A. fumigatus IAM 2530; sabouraud agar; unit assumed
S. marcescens A20019 = test: MIC by two-fold agar dilution; assay type: cell-based; conditions: Mueller-Hinton agar, unit assumed
C. neoformans IAM 4514 = test: MIC by two-fold agar dilution; assay type: cell-based; conditions: Cn-2 C. neoformans IAM 4514; sabouraud agar; unit assumed
S. aureus 209P = test: MIC by two-fold agar dilution; assay type: cell-based; conditions: Mueller-Hinton agar, unit assumed
C. neoformans (Cn-1) = test: MIC by two-fold agar dilution; assay type: cell-based; conditions: Cn-1 C. neoformans; sabouraud agar; unit assumed
K. pneumoniae A20680 = test: MIC by two-fold agar dilution; assay type: cell-based; conditions: Mueller-Hinton agar, unit assumed
A. niger var Tieghem = test: MIC by two-fold agar dilution; assay type: cell-based; conditions: An-1 A. niger var Tieghem; sabouraud agar; unit assumed
Sporotrichum sp. = test: MIC by two-fold agar dilution; assay type: cell-based; conditions: Sy-1 Sporotrichum sp.; sabouraud agar; unit assumed
[1] = system: C. tropicalis #125 A15051; test: MIC by two-fold agar dilution; assay type: cell-based; conditions: Ct-4 C. tropicalis #125 A15051; sabouraud agar; unit assumed
E. coli Juhl A15119 = test: MIC by two-fold agar dilution; assay type: cell-based; conditions: Mueller-Hinton agar, unit assumed
S. lutea PCI-1001 = test: MIC by two-fold agar dilution; assay type: cell-based; conditions: Mueller-Hinton agar, unit assumed
P. rettgeri A15167 = test: MIC by two-fold agar dilution; assay type: cell-based; conditions: Mueller-Hinton agar, unit assumed
E. coli K-12 A9632 = test: MIC by two-fold agar dilution; assay type: cell-based; conditions: Mueller-Hinton agar, unit assumed
S. cerevisiae IAM 4009 = test: MIC by two-fold agar dilution; assay type: cell-based; conditions: Sc-2 S. cerevisiae IAM 4009; sabouraud agar; unit assumed
T. asteroides = test: MIC by two-fold agar dilution; assay type: cell-based; conditions: Ta-1 T. asteroides; sabouraud agar; unit assumed
E. coli A20683 = test: MIC by two-fold agar dilution; assay type: cell-based; conditions: Mueller-Hinton agar, unit assumed
C. krusei #96 A15052 = test: MIC by two-fold agar dilution; assay type: cell-based; conditions: Ck-2 C. krusei #96 A15052; sabouraud agar; unit assumed
[2] = mice, single subcutaneous injection, 16 days
Method: The acute toxicity of copper-free Bu-2231 A and B was determined in mice by a single subcutaneous injection. Groups of 3 mice were used for each dose level and the body weight was recorded for 16 days.

| Compound | MIC (S. cerevisiae ATCC 9763) | MIC (Verticillium sp.) | MIC (P. aeruginosa A 9923) | MIC (Mycobacterium 607, D47) | MIC (P morganii A9553) | MIC (S. marcescens A20460) | MIC (E. cloacae A21006) | MIC (P. vulgaris A9436) | MIC (E. coli A20665) | MIC (P. stuartii A20734) | MIC (E. coli A20732) | MIC (B. anthracis 115) | MIC (A. fumigatus IAM 2530) | MIC (S. marcescens A20019) | MIC (C. neoformans IAM 4514) | MIC (S. aureus 209P) | MIC (C. neoformans (Cn-1)) | MIC (K. pneumoniae A20680) | MIC (A. niger var Tieghem) | MIC (Sporotrichum sp.) | further results |
| --- | --- | --- | --- | --- | --- | --- | --- | --- | --- | --- | --- | --- | --- | --- | --- | --- | --- | --- | --- | --- | --- |
| Cc1c(N)nc([C@H](CC(N)=O)NC[C@@H](N)C(N)=O)nc1C(=O)N[C@H](C(=O)N[C@H](C)[C@@H](O)CC(=O)N[C@@H](C(=O)NC(O[C@@H]1O[C@@H](C)[C@@H](N)[C@@H](O)[C@H]1O)C(O)c1nc(-c2nc(C(=O)NCCCNCCCCN)cs2)cs1)[C@@H](C)O)C(O[C@@H]1O[C@@H](CO)[C@H](O)[C@@H](O)[C@@H]1O[C@H]1O[C@H](CO)[C@@H](O)[C@@H](OC(N)=O)[C@@H]1O)c1cnc[nH]1 (some centres unmarked) [Bu-2231 B Cu-free] | 0.2 µg/mL (≈ 0.125 µM) | 1.6 µg/mL (≈ 0.998 µM) | > 100 µg/mL | 0.05 µg/mL (≈ 0.0312 µM) | 1.6 µg/mL (≈ 0.998 µM) | 0.8 µg/mL (≈ 0.499 µM) | 6.3 µg/mL (≈ 3.93 µM) | 0.2 µg/mL (≈ 0.125 µM) | 0.05 µg/mL (≈ 0.0312 µM) | 0.8 µg/mL (≈ 0.499 µM) | 0.2 µg/mL (≈ 0.125 µM) | 0.1 µg/mL (≈ 0.0624 µM) | 0.4 µg/mL (≈ 0.249 µM) | 0.8 µg/mL (≈ 0.499 µM) | 0.2 µg/mL (≈ 0.125 µM) | 0.4 µg/mL (≈ 0.249 µM) | 0.2 µg/mL (≈ 0.125 µM) | 25 µg/mL (≈ 15.6 µM) | 0.2 µg/mL (≈ 0.125 µM) | 3.1 µg/mL (≈ 1.93 µM) | MIC [1]: 0.8 µg/mL (≈ 0.499 µM); MIC (E. coli Juhl A15119): 0.2 µg/mL (≈ 0.125 µM); MIC (S. lutea PCI-1001): 0.4 µg/mL (≈ 0.249 µM); MIC (P. rettgeri A15167): 0.8 µg/mL (≈ 0.499 µM); MIC (E. coli K-12 A9632): 0.1 µg/mL (≈ 0.0624 µM); MIC (S. cerevisiae IAM 4009): 0.2 µg/mL (≈ 0.125 µM); MIC (T. asteroides): 0.8 µg/mL (≈ 0.499 µM); MIC (E. coli A20683): 12.5 µg/mL (≈ 7.79 µM); MIC (C. krusei #96 A15052): 0.4 µg/mL (≈ 0.249 µM); LD50 [2]: > 50 mg/kg |
| Phleomycin [reference compound] | 0.8 µg/mL | 6.3 µg/mL | > 100 µg/mL | 0.2 µg/mL | 6.3 µg/mL | 0.8 µg/mL | 50 µg/mL | 0.8 µg/mL | 0.4 µg/mL | 1.6 µg/mL | 1.6 µg/mL | 0.4 µg/mL | 0.8 µg/mL | 0.8 µg/mL | 0.4 µg/mL | 0.2 µg/mL | 0.4 µg/mL | > 100 µg/mL | 0.4 µg/mL | 12.5 µg/mL | MIC [1]: 6.3 µg/mL; MIC (E. coli Juhl A15119): 1.6 µg/mL; MIC (S. lutea PCI-1001): 0.4 µg/mL; MIC (P. rettgeri A15167): 3.1 µg/mL; MIC (E. coli K-12 A9632): 1.6 µg/mL; MIC (S. cerevisiae IAM 4009): 0.8 µg/mL; MIC (T. asteroides): 6.3 µg/mL; MIC (E. coli A20683): > 100 µg/mL; MIC (C. krusei #96 A15052): 0.8 µg/mL |
